Values of other authors, collected in US20220000966A1, “COMPOSITION AND METHOD FOR TREATING THE LUNGS” (priority 2018, published 2022).
Read-outs that look alike come from different tables or passages of the source. Blank lines part the entries; values can stand above or below the molecule they belong to.

Columns and labels:
human TRPM8 (hTRPM8) = human TRPM8 (hTRPM8) (Homo sapiens, UniProt Q7Z2W7)
TRPA1 [1] = molecular target: T1, TRPA1 (Homo sapiens, UniProt O75762)
human subjects = conditions: octanol on the neck of human subjects followed by 1,8-cineole
lymphocytes = conditions: 1.5 μg/mL
[2] = tested on: patients with steroid-dependent bronchial asthma
[3] = tested on: patients with reversible obstructive ventilatory disorders
TRPA1 [4] = molecular target: T1, TRPA1; remark: listed apart in the source
[5] = tested on: primary human bronchial epithelial cells; conditions: cigarette smoke extract, pretreatment
[6] = tested on: airway inflammation in asthma; conditions: in vivo
leukemia K562 cells = conditions: in vitro and ex vivo
[7] = tested on: particulate air pollution-induced inflammation; conditions: in vivo
[8] = orally 600 mg/day, COPD patients
[9] = tested on: human lung epithelial cells (A-549), fibroblasts (HFL1), and lymphoma cells (U-937)
[10] = oral administration, healthy subjects
patients = conditions: inhaled
human MonoMac6 cells = conditions: cells pretreated
Guinea pigs = conditions: pretreatment
mice = conditions: injection
rats = conditions: 50 mg/kg orally each day, smoke 1 hr/day for 56 days
[11] = patients with bronchial asthma, day 4, 1,8-cineole capsules 200 mg 3 times/day
[12] = 200 mg orally 3 times per day for 12 weeks

T1 sequence (O75762 whole entry): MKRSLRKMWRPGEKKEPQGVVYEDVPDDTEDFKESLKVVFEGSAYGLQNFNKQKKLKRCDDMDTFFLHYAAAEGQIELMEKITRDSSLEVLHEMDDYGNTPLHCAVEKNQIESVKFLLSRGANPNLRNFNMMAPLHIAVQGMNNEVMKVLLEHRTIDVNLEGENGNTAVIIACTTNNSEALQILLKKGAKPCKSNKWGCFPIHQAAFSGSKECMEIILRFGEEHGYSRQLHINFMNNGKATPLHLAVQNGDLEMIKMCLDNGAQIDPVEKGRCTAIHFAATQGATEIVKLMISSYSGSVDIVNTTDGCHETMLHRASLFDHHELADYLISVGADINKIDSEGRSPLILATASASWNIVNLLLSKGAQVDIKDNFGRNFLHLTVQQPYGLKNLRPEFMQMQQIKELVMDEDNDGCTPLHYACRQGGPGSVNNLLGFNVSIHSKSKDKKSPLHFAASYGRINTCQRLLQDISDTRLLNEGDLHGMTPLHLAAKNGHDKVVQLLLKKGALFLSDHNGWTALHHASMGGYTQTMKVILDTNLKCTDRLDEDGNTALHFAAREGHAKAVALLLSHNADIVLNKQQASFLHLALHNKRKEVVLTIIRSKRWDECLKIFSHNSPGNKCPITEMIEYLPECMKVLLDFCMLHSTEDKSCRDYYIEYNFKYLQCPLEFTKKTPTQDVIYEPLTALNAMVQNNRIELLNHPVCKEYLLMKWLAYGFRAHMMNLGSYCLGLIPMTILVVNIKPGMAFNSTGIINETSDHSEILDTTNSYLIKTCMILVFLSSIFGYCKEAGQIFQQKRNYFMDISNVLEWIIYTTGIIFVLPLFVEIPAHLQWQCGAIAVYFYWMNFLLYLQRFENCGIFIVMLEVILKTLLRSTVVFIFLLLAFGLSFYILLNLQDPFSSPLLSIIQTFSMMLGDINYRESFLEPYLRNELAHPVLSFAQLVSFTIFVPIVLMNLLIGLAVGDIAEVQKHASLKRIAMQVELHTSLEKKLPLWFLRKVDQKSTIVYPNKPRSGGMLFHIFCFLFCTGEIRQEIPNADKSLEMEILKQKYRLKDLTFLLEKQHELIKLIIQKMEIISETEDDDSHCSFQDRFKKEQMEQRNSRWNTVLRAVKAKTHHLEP
Chain of human TRPM8 (hTRPM8) (Q7Z2W7 whole entry): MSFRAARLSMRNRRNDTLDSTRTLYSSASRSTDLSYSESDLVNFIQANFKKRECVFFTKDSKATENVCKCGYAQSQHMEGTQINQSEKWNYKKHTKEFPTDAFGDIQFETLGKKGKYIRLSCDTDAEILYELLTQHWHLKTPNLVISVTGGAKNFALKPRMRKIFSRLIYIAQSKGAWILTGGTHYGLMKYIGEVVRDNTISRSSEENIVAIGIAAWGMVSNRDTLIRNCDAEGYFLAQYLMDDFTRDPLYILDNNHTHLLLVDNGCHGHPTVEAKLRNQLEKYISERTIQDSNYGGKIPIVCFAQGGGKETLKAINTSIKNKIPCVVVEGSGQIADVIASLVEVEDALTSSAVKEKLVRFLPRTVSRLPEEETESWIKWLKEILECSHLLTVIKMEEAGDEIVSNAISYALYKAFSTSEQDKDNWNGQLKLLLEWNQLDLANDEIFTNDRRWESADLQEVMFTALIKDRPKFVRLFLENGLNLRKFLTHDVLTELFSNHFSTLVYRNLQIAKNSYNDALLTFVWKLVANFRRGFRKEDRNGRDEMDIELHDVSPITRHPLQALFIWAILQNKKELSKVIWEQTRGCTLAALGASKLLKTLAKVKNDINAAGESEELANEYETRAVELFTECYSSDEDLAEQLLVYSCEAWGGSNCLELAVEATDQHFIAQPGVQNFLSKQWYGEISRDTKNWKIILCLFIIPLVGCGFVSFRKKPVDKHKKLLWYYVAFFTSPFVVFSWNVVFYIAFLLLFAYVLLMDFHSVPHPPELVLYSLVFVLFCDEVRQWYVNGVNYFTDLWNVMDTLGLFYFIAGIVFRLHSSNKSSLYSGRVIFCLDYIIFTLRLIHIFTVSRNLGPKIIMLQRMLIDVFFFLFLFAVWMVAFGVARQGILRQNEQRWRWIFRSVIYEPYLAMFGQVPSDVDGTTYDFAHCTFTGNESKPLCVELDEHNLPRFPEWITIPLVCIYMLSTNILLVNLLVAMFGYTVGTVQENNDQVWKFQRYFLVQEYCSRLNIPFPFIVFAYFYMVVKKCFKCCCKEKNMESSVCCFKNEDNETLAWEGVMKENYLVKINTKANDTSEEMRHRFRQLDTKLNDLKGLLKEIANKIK

TRPM8 activation (human TRPM8 (hTRPM8)): activates
action on hTRPA1 (TRPA1 [1]): antagonist
Molecule: CC12CCC(CC1)C(C)(C)O2 [1,8-cineole]
irritation of octanol (human subjects): significantly reduced
inhibition of IL-1β production in lymphocytes (lymphocytes): 84%
change of LTB4 production from monocytes ex vivo (blood monocytes; healthy volunteers, day 4): −57.9%
change of PGE2 production from monocytes ex vivo (blood monocytes; healthy volunteers, day 4): −42.7%
change of LTB4 production from monocytes ex vivo (blood monocytes; [11]): −40.3%
change of PGE2 production from monocytes ex vivo (blood monocytes; [11]): −31.3%
reduction in daily prednisolone dosage tolerated [2, 12]: 36%
reduction in daily prednisolone dosage, mean [2, 12]: 3.75 mg
patients who achieved a reduction of oral steroids ([2]; 1,8-cineole group): Twelve of 16
change of airway resistance ([3]; treatment duration of eight weeks): −21%
change of airway resistance ([3]; treatment duration of one week): −23%
inhibition of production of TNF-α, IL-1β, LTB4 and TXB2 (monocytes): dose-dependent and highly significant inhibition

Molecule: C=C1CC/C=C(\C)CC[C@@H]2[C@@H]1CC2(C)C [BCP, β-caryophyllene]
action on TRPA1 (TRPA1 [4]): agonist

Molecule: CC(C)c1ccc(NC(=O)Cn2cnc3c2c(=O)n(C)c(=O)n3C)cc1 [HC-030031]
Ca^2+ influx [5]: decrease in Ca^2+ influx was similar

Molecule: CCNC(=O)CC[C@H](N)C(=O)O [L-theanine]
inflammatory cells in bronchoalveolar lavage fluid (BALF) [6]: dramatically attenuated
production of IgE, MCP-1, IL-4, IL-5, IL-13, TNF-α and INF-γ in BALF [6]: significantly decreased
migration and invasion of A549 cells (human lung cancer A549): significantly inhibited
growth of human lung cancer A549 cells (human lung cancer A549; in vitro and ex vivo): significantly suppressed
growth of leukemia K562 cells (leukemia K562 cells): significantly suppressed

Molecule: CC(=O)N[C@@H](CS)C(=O)O [N-acetyl cysteine]
Ca^2+ influx [5]: prevented
particulate air pollution-induced inflammation [7]: effectively prevented
sputum eosinophil cationic protein concentrations and adhesion of polymorphonuclear leukocytes [8]: reduced

Molecule: COc1ccc2cc3[n+](cc2c1OC)CCc1cc2c(cc1-3)OCO2 [berberine]
inhibition of inflammatory agents-induced cytokine production [9]: dose-dependent and cell type-independent

Molecule: COc1cc(O)cc(O)c1C(=O)/C=C/c1ccccc1 [cardamonin]
cardiomyocyte constriction (cardiomyocyte): nor did it impair

period for which epithelial lung fluid glutathione remained elevated (aerosol nebulizer): 2 h
glutathione epithelial lung fluid concentration (aerosol nebulizer, 4 mL of 150 mg/mL over 25 minutes): about 337 μM
increase of plasma glutathione levels [10]: ineffective
FEV1 change from baseline (patients): −19%
induced breathlessness (patients): three
induced cough (patients): four
total pulmonary resistance change from baseline (patients): +61%
Molecule: N[C@@H](CCC(=O)N[C@@H](CS)C(=O)NCC(=O)O)C(=O)O [glutathione, γ-L-glutamyl-L-cysteinyl-glycine]
glutathione concentration increase in epithelial lung fluid (intravenously administered 600 mg): no measurable glutathione concentration increases
cigarette smoke-induced reduction in HDAC levels (human MonoMac6 cells): reversed
IL-8 release (human MonoMac6 cells; cigarette smoke extract): significantly inhibited

Molecule: CC1CCC(C(C)C)C(O)C1 (centres unmarked) [menthol, reference compound]
TRPM8 activation (human TRPM8 (hTRPM8)): activation
TRPA1 activation (TRPA1 [1]): activated

Molecule: CC1=CC(=O)C(C(C)C)=CC1=O [thymoquinone]
TNF-α level (Guinea pigs): significantly reduced
bronchoalveolar lavage fluid Leukotriene B4 (LTB4) levels (Guinea pigs): did not significantly change
malondialdehyde level (Guinea pigs): significantly reduced
neutrophil elastase (NE) level (Guinea pigs): significantly reduced
chronic inflammatory changes (mice): reduction

Molecule: epigallocatechin-3-gallate
cigarette smoke-induced oxidative stress, neutrophilic inflammation, airway mucus production and collagen deposition (rats): ameliorated
TNF-α level (Guinea pigs): significantly reduced
bronchoalveolar lavage fluid Leukotriene B4 (LTB4) levels (Guinea pigs): significantly reduced
glutathione peroxidase activity (Guinea pigs): increase
myeloperoxidase in lung tissue homogenate (Guinea pigs): significantly reduced
neutrophil elastase (NE) level (Guinea pigs): significantly reduced
superoxide dismutase activity (Guinea pigs): not significantly affected
